Data as given in patent publication US20030096237A1, “Determination of the ability of patients to respond to a tumor treatment” (priority 2000, published 2003).

System: CNCM I-2545
Assay: oligonucleotide array analysis of IFN-α modulated gene expression
Type: cell-based, human
Set-up: key to nAD M94880 mhc class i (hla-a*8001): normalized average difference between perfect and mismatch probeset signals
Procedure: All these cell lines were cultured in RPMI medium supplemented with 10% FCS, glutamine (2 mM), sodium pyruvate (1 mM), non-essential amino acids and HEPES buffer (10 mM) (all from GIBCO Life Sciences, Paisley, UK). When confluent, the cells were passaged by trypsinization.
Cultured melanoma cells were harvested by scraping and total cellular RNA was extracted. 10 μg from each sample were used directly as templates for cDNA synthesis using a commercial kit (Roche Molecular Biochemicals, Rotkreuz, Switzerland). The T7 promoter sequence incorporated into the cDNA synthesis primer allowed template amplification and biotin labeling by in vitro transcription using a commercial kit (Affymetrix, Santa Clara, Calif.). After alkaline heat fragmentation […] was hybridised to the array (Affymetrix, Santa Clara, Calif.) and all subsequent steps were performed following standard procedures as supplied with the arrays. Raw data were collected with a confocal laser scanner (Hewlett Packard, Palo Alto, Calif.) using GeneChip software v3.1 (Affymetrix, Santa Clara, Calif.).
Raw data were normalized based on the total chip signal obtained upon hybridisation of ME15 cell line cDNA. This array was selected because: i) the 5′/3′ intensity ratio of control genes was smaller than 3; ii)>25% of the genes are called “present” by Genechip; iii) the image appearance is homogeneous with low background and no sign of mechanical chip damage.
The normalized average difference (nAD) between the signals of the perfect and of the mismatch probesets for each gene was used as the expression level of a given gene. At least one nAD value in a pairwise comparison of data has to exceed 50 to be included. Based on nAD, change factors related to IFN-α exposure were also calculated. Negative nAD values were set to 20 in order to avoid the calculation of artificially high modifications. In order to exclude artefacts, only genes with robust change factors, greater than 2-fold, were included in the analysis. […] Genes were clustered according to their mode of regulation.
Total cellular RNA was extracted from the sensitive and resistant melanoma cell lines identified above, reverse transcribed and processed for hybridization to an oligonucleotide array (Hu6800FL, PN 900183) containing probe sets derived from 7000 full-length human genes. Expression levels for each gene were calculated as normalized average difference (nAD, see materials and methods).
Patterns of genes expressed in IFN-α sensitive and resistant melanoma cell lines were investigated upon 48 hour culture in the presence of IFN-α. CNCM I-2546 and CNCM I-2545 were studied in detail.
In Table 2 below, CNCM I-2546 and CNCM I-2545 cultured for 48 hours in the absence or in the presence of 100 U/ml IFN-α were used to assay cytokine modulated gene expression as matched with data obtained in fibrosarcoma cells. This analysis yielded six clusters of genes. […] Data are presented as average difference of signal intensity between match and mismatch probesets.
In Table 3 below, CNCM I-2546 and CNCM I-2545 cell lines cultured for 48 hours in the absence or in the presence of 100 U/ml IFN-α were used to identify novel cytokine induced genes whose expression was not found to be modulated in fibrosarcoma cells. Cluster 1 includes genes inducible in the CNCM I-2546 sensitive but not in the CNCM I-2545 resistant cell line. Cluster 2 comprises genes inducible in both lines. Data are presented as average difference of signal intensity between match and mismatch probesets.

[1] = CNCM I-2545 (+) IFN-α 100 U/ml 48 hours, (−) 11
[2] = CNCM I-2545 (+) IFN-α 100 U/ml 48 hours, (−) 106
[3] = CNCM I-2545 (+) IFN-α 100 U/ml 48 hours, (−) 115
[4] = CNCM I-2545 (+) IFN-α 100 U/ml 48 hours, (−) 234
[5] = CNCM I-2545 (+) IFN-α 100 U/ml 48 hours, (−) 238

nAD U18018 ela enhancer binding protein (ela-f) [1]: 23
nAD X70848 protein phosphatase 1, catalytic subunit (CNCM I-2545 (+) IFN-α 100 U/ml 48 hours, (−) 24): 226
nAD L42243 ifnar2 gene (interferon receptor) (CNCM I-2545 (+) IFN-α 100 U/ml 48 hours, (−) 62): −6
nAD D78132 rheb gene, ras-related gtp binding protein gene (CNCM I-2545 (+) IFN-α 100 U/ml 48 hours, (−) 88): 253
nAD L40387 thyroid receptor interactor (trip14) (CNCM I-2545 (+) IFN-α 100 U/ml 48 hours, (−) 104): 5
nAD U50648 interferon-inducible rna-dependent protein kinase (pkr) [2]: 46
nAD U69126 fuse binding protein 2 (fbp2) (CNCM I-2545 (+) IFN-α 100 U/ml 48 hours, (−) 114): 159
nAD U70063 human acid ceramidase [3]: 400
nAD M19650 2′,3′-cyclic nucleotide 3prime-phosphodiesterase (CNCM I-2545 (+) IFN-α 100 U/ml 48 hours, (−) 137): 99
nAD L37043 casein kinase i epsilon (CNCM I-2545 (+) IFN-α 100 U/ml 48 hours, (−) 218): 221
nAD Z26491 gene catechol o-methyltransferase [5]: 181
nAD U91316 acyl-coa thioester hydrolase (CNCM I-2545 (+) IFN-α 100 U/ml 48 hours, (−) 253): 428
nAD X90846 mixed lineage kinase 2 (CNCM I-2545 (+) IFN-α 100 U/ml 48 hours, (−) 357): 60
nAD Z47055 farnesyl pyrophosphate synthetase like (CNCM I-2545 (+) IFN-α 100 U/ml 48 hours, (−) 394): 797
nAD U50327 protein kinase c substrate 80k-h gene (prkcsh) (CNCM I-2545 (+) IFN-α 100 U/ml 48 hours, (−) 401): 236
nAD U65579 mitochondrial nadh dehydrogenase-ubiquinone (CNCM I-2545 (+) IFN-α 100 U/ml 48 hours, (−) 630): 621
nAD X95325 dna binding protein a variant (CNCM I-2545 (+) IFN-α 100 U/ml 48 hours, (−) 634): 253
nAD U47025 fetal brain glycogen phosphorylase b (CNCM I-2545 (+) IFN-α 100 U/ml 48 hours, (−) 672): 465
nAD D32050 alanyl-trna synthetase (CNCM I-2545 (+) IFN-α 100 U/ml 48 hours, (−) 1458): 761
nAD L13210 mac-2 binding protein (CNCM I-2545 (+) IFN-α 100 U/ml 48 hours, (−) 2555): 2092
nAD L35249 vacuolar h + -atpase mr 56,000 subunit (ho57) (CNCM I-2545 (+) IFN-α 100 U/ml 48 hours, (−) −40): 357
Substance: IFN-α
nAD X15949 interferon regulatory factor-2 (irf-2) (CNCM I-2545 (+) IFN-α 100 U/ml 48 hours, (−) 0): 13
nAD M92642 alpha-1 type xvi collagen (col16a1) [1]: 115
nAD M30818 interferon-induced cellular resistance mediator protein (CNCM I-2545 (+) IFN-α 100 U/ml 48 hours, (−) 20): 5
nAD L07633 interferon-gamma (CNCM I-2545 (+) IFN-α 100 U/ml 48 hours, (−) 22): 275
nAD D28137 bst-2 (CNCM I-2545 (+) IFN-α 100 U/ml 48 hours, (−) 37): 88
nAD J03909 gamma-interferon-inducible protein (ip-30) (CNCM I-2545 (+) IFN-α 100 U/ml 48 hours, (−) 42): 142
nAD J04182 lysosomal membrane glycoprotein-1 (lamp1) (CNCM I-2545 (+) IFN-α 100 U/ml 48 hours, (−) 66): 484
nAD Z56281 interferon regulatory factor 3 (CNCM I-2545 (+) IFN-α 100 U/ml 48 hours, (−) 93): 31
nAD U53830 interferon regulatory factor 7a (CNCM I-2545 (+) IFN-α 100 U/ml 48 hours, (−) 103): 5
nAD J00212 leukocyte interferon (ifn-alpha) [2]: 9
nAD M60784 ul snrnp-specific protein [3]: 413
nAD U72882 interferon-induced leucine zipper protein (ifp35) (CNCM I-2545 (+) IFN-α 100 U/ml 48 hours, (−) 125): 27
nAD X76538 mpv17 (CNCM I-2545 (+) IFN-α 100 U/ml 48 hours, (−) 132): 101
nAD X57522 ring4 cdna (CNCM I-2545 (+) IFN-α 100 U/ml 48 hours, (−) 143): 49
nAD M65028 heterogeneous nuclear ribonucleoprotein a/b (CNCM I-2545 (+) IFN-α 100 U/ml 48 hours, (−) 154): 353
nAD K01900 lymphocyte interferon alpha type 201 (CNCM I-2545 (+) IFN-α 100 U/ml 48 hours, (−) 156): 7
nAD U78525 human eukaryotic translation initiation factor (eif3) (CNCM I-2545 (+) IFN-α 100 U/ml 48 hours, (−) 165): 372
nAD M79462 pml-1 (CNCM I-2545 (+) IFN-α 100 U/ml 48 hours, (−) 201): 11
nAD X04412 plasma gelsolin (CNCM I-2545 (+) IFN-α 100 U/ml 48 hours, (−) 220): 220
nAD X96401 rox protein (CNCM I-2545 (+) IFN-α 100 U/ml 48 hours, (−) 229): 83
nAD D50914 EST [4]: 78
nAD X07730 prostate specific antigen [4]: 85
nAD U72206 guanine nucleotide regulatory factor (lfp40) [5]: 162
nAD U51127 interferon regulatory factor 5 (CNCM I-2545 (+) IFN-α 100 U/ml 48 hours, (−) 262): 91
nAD U52513 rig-g (CNCM I-2545 (+) IFN-α 100 U/ml 48 hours, (−) 289): 10
nAD M97935 transcription factor isgf-3 (CNCM I-2545 (+) IFN-α 100 U/ml 48 hours, (−) 331): 92
nAD U01824 glutamate/aspartate transporter (CNCM I-2545 (+) IFN-α 100 U/ml 48 hours, (−) 339): 35
nAD HG2917 major histocompatibility complex, class i, e (CNCM I-2545 (+) IFN-α 100 U/ml 48 hours, (−) 353): 322
nAD M31013 nonmuscle myosin heavy chain (nmhc) (CNCM I-2545 (+) IFN-α 100 U/ml 48 hours, (−) 377): 263
nAD D21235 hhr23a protein (CNCM I-2545 (+) IFN-α 100 U/ml 48 hours, (−) 388): 346
nAD Y00264 amyloid a4 precursor (CNCM I-2545 (+) IFN-α 100 U/ml 48 hours, (−) 392): 427
nAD U61263 acetolactate synthase homolog (CNCM I-2545 (+) IFN-α 100 U/ml 48 hours, (−) 410): 301
nAD M34338 spermidine synthase (CNCM I-2545 (+) IFN-α 100 U/ml 48 hours, (−) 472): 277
nAD D49824 hla-b null allele (CNCM I-2545 (+) IFN-α 100 U/ml 48 hours, (−) 527): 267
nAD M94880 mhc class i (hla-a*8001) (CNCM I-2545 (+) IFN-α 100 U/ml 48 hours, (−) 551): 421
nAD HG1612 macmarcks (CNCM I-2545 (+) IFN-α 100 U/ml 48 hours, (−) 588): 505
nAD U18009 chromosome 17q21 clone lf113 (CNCM I-2545 (+) IFN-α 100 U/ml 48 hours, (−) 674): 423
nAD J04444 cytochrome c-1 gene (CNCM I-2545 (+) IFN-α 100 U/ml 48 hours, (−) 886): 2268
nAD HG658 major histocompatibility complex, class 1 c (CNCM I-2545 (+) IFN-α 100 U/ml 48 hours, (−) 1183): 455
nAD J00105 beta-2 microglobulin gene (CNCM I-2545 (+) IFN-α 100 U/ml 48 hours, (−) 1668): 2101
nAD X57351 1-8d gene from interferon-inducible gene family (CNCM I-2545 (+) IFN-α 100 U/ml 48 hours, (−) 2469): 2686
nAD U65932 extracellular matrix protein 1 (ecm1) (CNCM I-2545 (+) IFN-α 100 U/ml 48 hours, (−) 2498): 1066
nAD K03515 neuroleukin (CNCM I-2545 (+) IFN-α 100 U/ml 48 hours, (−) 2998): 2552
nAD M98343 amplaxin (ems1) (CNCM I-2545 (+) IFN-α 100 U/ml 48 hours, (−) −24): 63
nAD U09579 melanoma differentiation associated (mda-6) (CNCM I-2545 (+) IFN-α 100 U/ml 48 hours, (−) −59): −26
nAD U41515 dss1 (CNCM I-2545 (+) IFN-α 100 U/ml 48 hours, (−) −62): 123
nAD S81914 iex-1 = radiation-inducible immediate-early gene (CNCM I-2545 (+) IFN-α 100 U/ml 48 hours, (−) −66): 21
nAD M13755 interferon-induced 17-kda/15-kda protein (CNCM I-2545 (+) IFN-α 100 U/ml 48 hours, (−) −163): 31
nAD U22970 16-jun gene, interferon-inducible peptide (6-16) (CNCM I-2545 (+) IFN-α 100 U/ml 48 hours, (−) −190): 24
nAD J04164 interferon-inducible protein 27-sep (CNCM I-2545 (+) IFN-α 100 U/ml 48 hours, (−) −447): −97
nAD X67325 p27 (CNCM I-2545 (+) IFN-α 100 U/ml 48 hours, (−) −460): −86
change factor (CF) D21235 hhr23a protein (CNCM I-2545, IFN-α 100 U/ml 48 hours): −0.12
